Results: patent US5240941A, “Thioxo quinoline compounds, composition and method of use” (ICI Pharma, priority 1990, dated 1993)

Assays:
5-LO [1] = experiment: Test b) heparinised human blood, A23187 challenge, LTB4 radioimmunoassay; format: cell-based
Description: b) An in vitro assay system involving incubating a test compound with heparinised human blood, prior to challenge with the calcium ionophore A23187 and then indirectly measuring the inhibitory effects on 5-LO by assaying the amount of LTB4 using specific radioimmunoassays described by Carey and Forder (F. Carey and R. A. Forder, Prostaglandins Leukotrienes Med., 1986, 22, 57; Prostaglandins,1984, 28, 666; Brit. J. Pharmacol. 1985, 84, 34P) which involve the use of a protein-LTB4 conjugate produced using the procedure of Young et alia (Prostaglandins, 1983, 26(4), 605-613). The effects of a test compound on the enzyme cyclooxygenase (which is involved in the alternative metabolic pathway for arachidonic acid and gives rise to prostaglandins, thromboxanes and related metabolites) may be measured at the same time using the specific radioimmunoassay for thromboxane B2 (TxB2) described by Carey and Forder (see above). This test provides an indication of the effects of a test compound against 5-LO and also cyclooxygenase in the presence of blood cells and proteins. It permits the selectivity of the inhibitory effect on 5-LO or cyclooxygenase to be assessed.

5-LO [2] = experiment: Test g) zymosan-induced LTB4 liberation in air pouch of male rats; format: in vivo; details: 3 h; test g), rat air pouch, oral
Description: g) An in vivo system involving measuring the effects of a test compound administered orally against the liberation of LTB4 induced by zymosan within an air pouch generated within the subcutaneous tissue of the back of male rats. The rats are anaesthetised and air pouches are formed by the injection of sterile air (20 ml). A further injection of air (10 ml) is similarly given after 3 days. At 6 days after the initial air injection the test compound is administered (usually orally as the suspension produced when a solution of the test compound in dimethylsulphoxide is added to hydroxypropylmethylcellulose), followed by the intrapouch injection of zymosan (1 ml of a 1% suspension in physiological saline). After 3 hours the rats are killed, the air pouches are lavaged with physiological saline, and the specific radioimmunoassay described above is used to assay LTB4 in the washings. This test provides an indication of inhibitory effects against 5-LO in an inflammatory milieu.

Which IC50 (5-LO [1]) does the source give for COC1(c2cc(F)cc(Sc3ccc4c(c3)CCC(=S)N4C)c2)CCOCC1 [4-[5-fluoro-3-(1-methyl-2-thioxo-1,2,3,4-tetrahydroquinolin-6-ylthio)phenyl]-4-methoxytetrahydropyran] here?
The IC50 was 50 nM.

What about the ED50 (5-LO [2]) of the same compound?
Its ED50 is 0.5 mg/kg.

With COC1(c2cc(F)cc(OCc3ccc4c(c3)CCC(=S)N4C)c2)CCOCC1 [4-[5-fluoro-3-(1-methyl-2-thioxo-1,2,3,4-tetrahydroquinolin-6-ylmethoxy)phenyl]-4-methoxytetrahydropyran] as the compound, how does the IC50 (5-LO [1]) read?
Its IC50 is 100 nM.

And the ED50 (5-LO [2])?
Its ED50 is 1.5 mg/kg.
